Each structure is given as a SMILES string.

As a reminder, the IC50 is the point on the concentration scale where inhibition reaches its midpoint. The inhibition is the percentage by which the read-out fell short of the control.

One assay has as its target T1, Ubiquitin-like modifier-activating enzyme ATG7 (Homo sapiens, UniProt O95352).
T1 sequence (O95352 whole entry): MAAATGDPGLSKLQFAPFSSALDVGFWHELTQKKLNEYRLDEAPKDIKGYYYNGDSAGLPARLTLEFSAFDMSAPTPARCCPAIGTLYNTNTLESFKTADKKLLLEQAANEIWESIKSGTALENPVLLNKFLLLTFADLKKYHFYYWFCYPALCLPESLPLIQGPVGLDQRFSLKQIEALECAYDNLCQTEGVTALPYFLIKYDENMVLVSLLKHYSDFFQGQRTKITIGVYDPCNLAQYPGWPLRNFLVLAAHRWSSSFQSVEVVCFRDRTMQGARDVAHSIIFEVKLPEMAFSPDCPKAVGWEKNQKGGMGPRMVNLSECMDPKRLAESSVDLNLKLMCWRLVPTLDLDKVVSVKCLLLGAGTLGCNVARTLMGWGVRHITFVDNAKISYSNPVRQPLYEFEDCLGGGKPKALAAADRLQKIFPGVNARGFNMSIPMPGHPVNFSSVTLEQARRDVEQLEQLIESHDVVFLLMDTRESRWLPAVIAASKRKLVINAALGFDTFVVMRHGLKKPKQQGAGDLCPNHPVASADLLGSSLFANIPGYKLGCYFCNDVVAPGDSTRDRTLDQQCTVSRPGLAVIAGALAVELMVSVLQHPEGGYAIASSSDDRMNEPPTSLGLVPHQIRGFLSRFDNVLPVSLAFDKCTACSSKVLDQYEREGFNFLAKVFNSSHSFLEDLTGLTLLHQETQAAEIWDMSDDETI
Nature of the assay: Inhibition of recombinant His-tagged human ATG7 incubated for 105 mins in presence of GST-tagged ATG3 and Flag-tagged Gabarap and measured after 2 hrs by FRET assay.
For the compound `CCc1nn([C@H]2C[C@H](O)[C@H](COS(N)(=O)=O)O2)c2ncnc(N)c12`, the IC50 is over 500 nM. Consider `Nc1ncnc2c1c(SCCO)nn2[C@@H]1O[C@H](COS(N)(=O)=O)[C@@H](O)[C@@H]1F`, for which the IC50 lay in the range of 20 to 50 nM.

Another assay addresses T2, Ubiquitin-like modifier-activating enzyme ATG7 (Homo sapiens) (UniProt O95352).
T2 sequence (whole entry): T1 sequence (O95352 whole entry)
Nature of the assay: Inhibition of recombinant His-tagged human ATG7 at 0.111 uM incubated for 105 mins in presence of GST-tagged ATG3 and Flag-tagged Gabarap and measured after 2 hrs by FRET assay relative to control.
In the case of `Cc1ccc(Sc2nn([C@H]3C[C@H](O)[C@@H](COS(N)(=O)=O)O3)c3ncnc(N)c23)c(F)c1`, the inhibition lay within 59 to 64%.

On to `CC[C@@H](C)Sc1nn([C@@H]2O[C@H](COS(N)(=O)=O)[C@@H](O)[C@@H]2F)c2ncnc(N)c12`, for which the inhibition is 63%.

For `CC[C@H](C)Sc1nn([C@@H]2O[C@H](COS(N)(=O)=O)[C@@H](O)[C@@H]2F)c2ncnc(N)c12`, the inhibition worked out at 61%.

Consider `Nc1ncnc2c1cnn2[C@H]1C[C@H](O)[C@H](COS(N)(=O)=O)O1`, for which the inhibition was 5%.
